Assay results published in ChEMBL document CHEMBL4507292 (2021).

Experiments:
[1] = molecular target: Mitogen-activated protein kinase 3 (Homo sapiens) (UniProt P27361); assay: Inhibition of Protein Serine/Threonine Kinase, MAPK3 (ERK1) at 10 µM in the Eurofins-Panlabs enzyme assay (Eurofins_assay_171000); details: Compound concentration […]
[2] = molecular target: T1, Prostaglandin G/H synthase 2 (Homo sapiens) (UniProt P35354); assay: (§1) Inhibition of Cyclooxygenase COX-2 at compound concentration of 10.0 uM in the Eurofins-Panlabs enzyme assay (Eurofins_assay_118010); set-up: substrate with concentration 0.3 uM Arachidonic acid, incubation time 15 min, incubation temperature 37 C
T1 sequence (whole entry): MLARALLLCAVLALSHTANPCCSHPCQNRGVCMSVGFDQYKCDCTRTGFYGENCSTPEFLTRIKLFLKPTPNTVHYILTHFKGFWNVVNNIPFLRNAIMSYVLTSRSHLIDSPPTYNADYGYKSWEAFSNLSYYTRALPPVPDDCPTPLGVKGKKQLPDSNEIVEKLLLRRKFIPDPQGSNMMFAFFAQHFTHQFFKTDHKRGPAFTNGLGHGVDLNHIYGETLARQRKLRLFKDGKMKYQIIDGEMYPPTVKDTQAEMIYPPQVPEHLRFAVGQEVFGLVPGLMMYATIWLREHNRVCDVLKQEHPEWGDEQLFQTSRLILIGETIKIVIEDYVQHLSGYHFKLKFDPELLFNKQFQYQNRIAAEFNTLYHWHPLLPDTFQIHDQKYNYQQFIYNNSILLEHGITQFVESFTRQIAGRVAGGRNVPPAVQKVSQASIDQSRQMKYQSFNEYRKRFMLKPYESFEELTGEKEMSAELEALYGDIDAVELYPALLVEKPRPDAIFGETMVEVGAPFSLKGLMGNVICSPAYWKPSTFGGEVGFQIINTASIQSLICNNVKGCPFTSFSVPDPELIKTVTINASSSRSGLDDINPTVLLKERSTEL

[3] = molecular target: Prostaglandin G/H synthase 2 (Homo sapiens, UniProt P35354); assay: as §1; set-up: substrate with concentration 0.3 uM Arachidonic acid, incubation time 15 min, incubation temperature 37 C
[4] = molecular target: Insulin receptor (Homo sapiens, UniProt P06213); assay: Protein Tyrosine Kinase, Insulin Receptor Eurofins-Panlabs enzyme assay; set-up: substrate with concentration 10 µg/mL […], incubation time 60 min, incubation temperature 25 °C
[5] = molecular target: monoamine oxidase A (MAO-A) (Homo sapiens, UniProt P21397); assay: Inhibition of Monoamine Oxidase MAO-A at compound concentration of 10.0 uM in the Eurofins-Panlabs enzyme assay (Eurofins_assay_140010); set-up: substrate with concentration 50 uM Kynuramine, incubation time 60 min, incubation temperature 37 C; details: human recombinant MAO-A expressed in insect Hi5 cells, probe kynuramine, 50 uM, compound concentration 10 uM
[6] = Protein Tyrosine Kinase, pp60 c-SRC Eurofins-Panlabs enzyme assay
[7] = organism: Rattus norvegicus; assay: Testosterone Eurofins-Panlabs radioligand binding assay; set-up: ligand concentration 1.5 nM; details: Compound concentration 10.0 uM
[8] = molecular target: Caspase-1 (Homo sapiens) (UniProt P29466); assay: Inhibition of Peptidase, CASP1 (Caspase 1) at 10 µM in the Eurofins-Panlabs enzyme assay (Eurofins_assay_163000); details: Compound concentration 10.0 uM
[9] = molecular target: Kappa-type opioid receptor (Homo sapiens, UniProt P41145); assay: Inhibition of Opiate kappa (OP2, KOP) at compound concentration of 10.0 uM in the Eurofins-Panlabs radioligand binding assay (Eurofins_assay_260210); set-up: ligand concentration 0.6 nM, non-specific ligand with concentration 10 uM Naloxone, incubation time 60 min, incubation temperature 25 C
[10] = molecular target: Substance-P receptor (Homo sapiens) (UniProt P25103); assay: Tachykinin NK1 Eurofins-Panlabs radioligand binding assay; details: Compound concentration 10.0 uM
[11] = molecular target: D(3) dopamine receptor (Homo sapiens) (UniProt P35462)
[12] = molecular target: T2, 5-hydroxytryptamine receptor 3A (Homo sapiens) (UniProt P46098); assay: Inhibition of Serotonin (5-Hydroxytryptamine) 5-HT3 at 10 µM in the Eurofins-Panlabs radioligand binding assay (Eurofins_assay_271910); set-up: ligand concentration 0.69 nM; details: Compound concentration 10.0 uM
T2 sequence (whole entry): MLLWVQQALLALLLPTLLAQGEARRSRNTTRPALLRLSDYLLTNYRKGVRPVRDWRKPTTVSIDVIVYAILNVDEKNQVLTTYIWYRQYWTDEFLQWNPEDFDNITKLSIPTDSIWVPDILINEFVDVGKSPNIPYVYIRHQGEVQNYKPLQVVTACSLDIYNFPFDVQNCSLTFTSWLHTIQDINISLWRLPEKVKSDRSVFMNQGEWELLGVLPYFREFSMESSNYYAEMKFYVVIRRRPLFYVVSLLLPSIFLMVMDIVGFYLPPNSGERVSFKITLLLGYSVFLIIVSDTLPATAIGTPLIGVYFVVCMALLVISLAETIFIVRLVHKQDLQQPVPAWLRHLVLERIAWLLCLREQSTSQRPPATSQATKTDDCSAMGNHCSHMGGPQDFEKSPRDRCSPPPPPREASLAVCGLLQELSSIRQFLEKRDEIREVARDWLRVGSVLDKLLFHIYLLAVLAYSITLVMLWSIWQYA

[13] = molecular target: Cholecystokinin receptor type A (Homo sapiens) (UniProt P32238); assay: Inhibition of Cholecystokinin CCK1 (CCKA) at 10 µM in the Eurofins-Panlabs radioligand binding assay (Eurofins_assay_218020)
[14] = molecular target: monoamine oxidase B (MAO-B) (Homo sapiens, UniProt P27338); assay: Inhibition of Monoamine Oxidase MAO-B at compound concentration of 10.0 uM in the Eurofins-Panlabs enzyme assay (Eurofins_assay_140120); set-up: substrate with concentration 50 uM Kynuramine, incubation time 60 min, incubation temperature 37 C; details: human recombinant MAO-B expressed in insect Hi5 cells, probe kynuramine, 50 uM, compound concentration 10 uM
[15] = organism: Bos taurus; assay: (§2) Phosphodiesterase PDE6 Eurofins-Panlabs enzyme assay; set-up: substrate with concentration [3H] cGMP + cGMP, incubation time 20 min, incubation temperature 25 °C
[16] = as §2; set-up: species or system Bos taurus; substrate with concentration [3H] cGMP + cGMP, incubation time 20 min, incubation temperature 25 °C
[17] = molecular target: Histamine H2 receptor (Homo sapiens) (UniProt P25021)
[18] = molecular target: Galanin receptor type 2 (Homo sapiens) (UniProt O43603); assay: Galanin GAL2 Eurofins-Panlabs radioligand binding assay; set-up: ligand concentration 0.02 nM; details: Compound concentration 10.0 uM
[19] = molecular target: Oxytocin receptor (Homo sapiens) (UniProt P30559); assay: Oxytocin Eurofins-Panlabs radioligand binding assay; details: Compound concentration 10.0 uM
[20] = molecular target: Glucocorticoid receptor (Homo sapiens) (UniProt P04150); assay: Glucocorticoid Eurofins-Panlabs radioligand binding assay; details: Compound concentration 10.0 uM
[21] = molecular target: GABA-A receptor; anion channel (Rattus norvegicus) (UniProt O09028+P15431+P18506+P18508+P19969+P20236+P23574+P23576+P28471+P28473+P30191+P62813+P63079+P63138+Q91ZM7+Q9ES14); assay: Inhibition of GABAA, Muscimol, Central at 10 µM in the Eurofins-Panlabs radioligand binding assay (Eurofins_assay_226500); type: protein-complex assay; details: Compound concentration 10.0 uM
[22] = molecular target: Histamine H4 receptor (Homo sapiens) (UniProt Q9H3N8); assay: Histamine H4 Eurofins-Panlabs radioligand binding assay; details: Compound concentration 10.0 uM

Chain of D(3) dopamine receptor (Homo sapiens) (P35462 whole entry): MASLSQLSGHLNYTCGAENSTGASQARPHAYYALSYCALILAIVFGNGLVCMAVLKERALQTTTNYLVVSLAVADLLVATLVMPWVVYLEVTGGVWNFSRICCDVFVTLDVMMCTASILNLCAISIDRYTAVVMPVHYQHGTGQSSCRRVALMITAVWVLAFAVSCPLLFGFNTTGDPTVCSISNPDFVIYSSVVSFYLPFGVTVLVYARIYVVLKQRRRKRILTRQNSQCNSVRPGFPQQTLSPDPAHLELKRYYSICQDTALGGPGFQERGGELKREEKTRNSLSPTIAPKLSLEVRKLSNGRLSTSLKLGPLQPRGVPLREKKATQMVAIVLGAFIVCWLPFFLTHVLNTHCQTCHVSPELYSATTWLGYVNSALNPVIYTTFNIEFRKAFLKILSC
Chain of Histamine H2 receptor (Homo sapiens) (P25021 whole entry): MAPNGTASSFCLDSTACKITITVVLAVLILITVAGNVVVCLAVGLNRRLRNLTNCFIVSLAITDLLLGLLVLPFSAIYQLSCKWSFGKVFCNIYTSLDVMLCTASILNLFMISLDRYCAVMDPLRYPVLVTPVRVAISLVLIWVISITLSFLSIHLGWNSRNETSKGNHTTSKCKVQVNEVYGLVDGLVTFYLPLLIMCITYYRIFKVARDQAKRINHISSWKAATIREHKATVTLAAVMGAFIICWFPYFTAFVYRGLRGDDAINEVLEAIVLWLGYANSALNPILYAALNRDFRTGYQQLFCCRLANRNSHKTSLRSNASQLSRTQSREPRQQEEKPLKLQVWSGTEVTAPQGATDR
Chain of Insulin receptor (P06213 28-758 limits assumed): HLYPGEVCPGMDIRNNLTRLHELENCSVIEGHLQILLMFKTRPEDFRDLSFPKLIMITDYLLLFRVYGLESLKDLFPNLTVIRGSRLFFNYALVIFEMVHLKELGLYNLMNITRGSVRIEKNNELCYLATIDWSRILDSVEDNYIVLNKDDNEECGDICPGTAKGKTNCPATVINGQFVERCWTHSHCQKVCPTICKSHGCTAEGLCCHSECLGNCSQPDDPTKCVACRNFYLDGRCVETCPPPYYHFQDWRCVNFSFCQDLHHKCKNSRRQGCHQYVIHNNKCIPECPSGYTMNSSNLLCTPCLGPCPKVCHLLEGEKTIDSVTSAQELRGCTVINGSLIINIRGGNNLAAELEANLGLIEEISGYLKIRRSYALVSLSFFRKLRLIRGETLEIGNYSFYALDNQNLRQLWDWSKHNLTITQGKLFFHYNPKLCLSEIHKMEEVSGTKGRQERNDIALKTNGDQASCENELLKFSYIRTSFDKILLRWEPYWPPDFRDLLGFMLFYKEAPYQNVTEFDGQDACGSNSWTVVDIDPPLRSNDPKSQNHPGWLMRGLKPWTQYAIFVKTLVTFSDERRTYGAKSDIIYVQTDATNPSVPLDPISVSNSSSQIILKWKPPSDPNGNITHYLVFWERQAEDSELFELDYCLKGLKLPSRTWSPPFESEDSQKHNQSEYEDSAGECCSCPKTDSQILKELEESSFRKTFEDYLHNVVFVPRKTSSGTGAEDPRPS
Chain of Insulin receptor (P06213 763-1382 limits assumed): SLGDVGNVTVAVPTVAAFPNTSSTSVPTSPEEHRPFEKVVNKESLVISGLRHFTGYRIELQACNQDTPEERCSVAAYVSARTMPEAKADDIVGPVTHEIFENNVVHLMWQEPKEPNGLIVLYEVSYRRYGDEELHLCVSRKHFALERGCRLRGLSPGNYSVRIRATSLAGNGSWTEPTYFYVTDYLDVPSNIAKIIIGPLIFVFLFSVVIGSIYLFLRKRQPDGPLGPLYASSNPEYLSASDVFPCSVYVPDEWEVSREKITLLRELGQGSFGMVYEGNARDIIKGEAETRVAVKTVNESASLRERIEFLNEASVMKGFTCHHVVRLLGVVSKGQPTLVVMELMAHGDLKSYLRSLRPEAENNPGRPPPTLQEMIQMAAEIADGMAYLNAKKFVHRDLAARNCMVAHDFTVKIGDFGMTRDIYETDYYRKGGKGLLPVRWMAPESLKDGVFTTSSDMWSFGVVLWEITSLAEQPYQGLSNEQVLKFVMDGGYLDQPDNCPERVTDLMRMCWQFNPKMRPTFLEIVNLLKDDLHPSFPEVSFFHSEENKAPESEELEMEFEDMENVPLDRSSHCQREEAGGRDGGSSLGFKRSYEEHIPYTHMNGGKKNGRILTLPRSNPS
Chain of Kappa-type opioid receptor (P41145 whole entry): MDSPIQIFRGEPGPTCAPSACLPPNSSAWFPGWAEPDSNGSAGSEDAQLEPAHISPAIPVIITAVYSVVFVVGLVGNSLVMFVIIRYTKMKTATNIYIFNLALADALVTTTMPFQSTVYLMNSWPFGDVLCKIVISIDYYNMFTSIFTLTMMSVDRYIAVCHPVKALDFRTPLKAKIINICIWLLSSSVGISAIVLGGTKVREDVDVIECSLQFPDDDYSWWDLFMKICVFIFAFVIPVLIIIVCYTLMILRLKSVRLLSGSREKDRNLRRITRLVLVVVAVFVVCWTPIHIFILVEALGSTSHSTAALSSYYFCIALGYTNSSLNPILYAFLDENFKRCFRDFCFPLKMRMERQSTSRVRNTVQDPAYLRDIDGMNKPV
Chain of Galanin receptor type 2 (Homo sapiens) (O43603 whole entry): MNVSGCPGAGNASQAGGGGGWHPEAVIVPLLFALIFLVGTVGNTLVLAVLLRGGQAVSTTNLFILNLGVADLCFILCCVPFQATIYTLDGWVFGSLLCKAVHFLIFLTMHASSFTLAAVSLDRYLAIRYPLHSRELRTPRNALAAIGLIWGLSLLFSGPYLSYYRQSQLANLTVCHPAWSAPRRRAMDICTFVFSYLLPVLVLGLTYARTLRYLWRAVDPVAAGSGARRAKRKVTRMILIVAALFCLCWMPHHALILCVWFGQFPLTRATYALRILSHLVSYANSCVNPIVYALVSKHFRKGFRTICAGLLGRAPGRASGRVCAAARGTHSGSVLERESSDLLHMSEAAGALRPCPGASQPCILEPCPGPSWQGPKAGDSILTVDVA
Chain of Cholecystokinin receptor type A (Homo sapiens) (P32238 whole entry): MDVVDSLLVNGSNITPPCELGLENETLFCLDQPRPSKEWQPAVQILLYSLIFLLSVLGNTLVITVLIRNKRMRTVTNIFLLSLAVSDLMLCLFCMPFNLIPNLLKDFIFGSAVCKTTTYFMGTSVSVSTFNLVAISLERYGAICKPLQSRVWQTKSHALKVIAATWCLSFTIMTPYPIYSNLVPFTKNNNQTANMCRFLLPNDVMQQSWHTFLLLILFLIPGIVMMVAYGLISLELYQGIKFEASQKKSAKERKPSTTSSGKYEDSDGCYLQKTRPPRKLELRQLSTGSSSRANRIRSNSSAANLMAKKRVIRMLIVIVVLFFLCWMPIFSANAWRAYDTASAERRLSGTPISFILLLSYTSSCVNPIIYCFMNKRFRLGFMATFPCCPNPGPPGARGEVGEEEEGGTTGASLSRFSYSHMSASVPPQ
Chain of Glucocorticoid receptor (Homo sapiens) (P04150 whole entry): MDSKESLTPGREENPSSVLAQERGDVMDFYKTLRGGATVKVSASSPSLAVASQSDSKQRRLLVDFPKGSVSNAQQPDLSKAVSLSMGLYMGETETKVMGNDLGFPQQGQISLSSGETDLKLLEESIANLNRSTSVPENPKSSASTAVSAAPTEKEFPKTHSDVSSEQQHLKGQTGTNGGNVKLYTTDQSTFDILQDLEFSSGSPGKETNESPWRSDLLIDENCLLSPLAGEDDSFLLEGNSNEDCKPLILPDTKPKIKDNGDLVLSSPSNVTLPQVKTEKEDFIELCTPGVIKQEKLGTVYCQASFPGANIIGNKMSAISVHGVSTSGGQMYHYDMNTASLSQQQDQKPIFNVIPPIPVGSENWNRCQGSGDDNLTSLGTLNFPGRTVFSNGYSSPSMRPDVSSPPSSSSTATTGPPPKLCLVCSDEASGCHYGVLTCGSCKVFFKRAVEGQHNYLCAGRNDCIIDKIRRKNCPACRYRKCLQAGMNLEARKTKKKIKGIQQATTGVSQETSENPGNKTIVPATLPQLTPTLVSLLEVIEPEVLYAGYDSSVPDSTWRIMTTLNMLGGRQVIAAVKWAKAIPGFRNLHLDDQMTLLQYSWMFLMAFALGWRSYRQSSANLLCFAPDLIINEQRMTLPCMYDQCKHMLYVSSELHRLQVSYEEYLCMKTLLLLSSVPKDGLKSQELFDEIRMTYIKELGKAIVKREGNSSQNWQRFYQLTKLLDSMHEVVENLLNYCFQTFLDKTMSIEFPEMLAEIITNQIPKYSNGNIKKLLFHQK
Chain of Substance-P receptor (Homo sapiens) (P25103 whole entry): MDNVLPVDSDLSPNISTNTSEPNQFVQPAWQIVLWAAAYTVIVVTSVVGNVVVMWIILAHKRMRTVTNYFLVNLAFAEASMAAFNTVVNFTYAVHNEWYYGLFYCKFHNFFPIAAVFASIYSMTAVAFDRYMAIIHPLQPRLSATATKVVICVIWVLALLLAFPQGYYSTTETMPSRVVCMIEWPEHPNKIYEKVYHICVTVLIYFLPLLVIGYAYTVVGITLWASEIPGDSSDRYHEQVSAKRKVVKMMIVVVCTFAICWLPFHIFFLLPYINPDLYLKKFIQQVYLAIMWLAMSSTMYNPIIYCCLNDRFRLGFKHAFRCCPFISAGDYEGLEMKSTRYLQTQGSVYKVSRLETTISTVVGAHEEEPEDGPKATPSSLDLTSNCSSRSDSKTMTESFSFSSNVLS
Chain of Caspase-1 (Homo sapiens) (P29466 120-297 limits assumed): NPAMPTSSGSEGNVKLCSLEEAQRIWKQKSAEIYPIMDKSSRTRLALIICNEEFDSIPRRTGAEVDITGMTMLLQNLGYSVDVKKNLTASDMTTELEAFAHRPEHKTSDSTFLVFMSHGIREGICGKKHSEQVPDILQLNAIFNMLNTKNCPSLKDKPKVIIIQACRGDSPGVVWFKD
Chain of Caspase-1 (Homo sapiens) (P29466 317-404 limits assumed): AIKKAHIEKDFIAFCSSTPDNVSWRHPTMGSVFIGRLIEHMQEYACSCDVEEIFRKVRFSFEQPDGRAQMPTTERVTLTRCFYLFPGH

For `O=C(O)c1cc(-c2ccc(C3CCNCC3)cc2)c2ccc(-c3ccc(C(F)(F)F)cc3)cc2c1` [PPTN], the inhibition [1] was -5%, the inhibition ([2]; Compound concentration 0.01 uM) was -3% and the inhibition ([2]; Compound concentration 0.1 uM) was 0%. For the same molecule, the inhibition ([2]; Compound concentration 1.0 uM) was -1%, the inhibition ([2]; Compound concentration 10.0 uM) was 70% and the IC50 [3] was 8.71 µM. It also gave an IC50 [4] of 4.31 µM, an inhibition ([4]; Compound concentration 0.01 uM) of 1% and an inhibition ([4]; Compound concentration 0.1 uM) of -10%. For the same molecule, the inhibition ([4]; Compound concentration 1.0 uM) was 14%, the inhibition ([4]; Compound concentration 10.0 uM) was 75% and the inhibition at 60 min, 10 µM [5] was 22% (not active). For the same molecule, the IC50 [6] was 9.02 µM, the inhibition [7] was 26% and the inhibition [8] was -1%. For the same molecule, the IC50 [9] was 8.03 µM, the Ki [9] was 3.21 µM and the inhibition [10] was 1%. The inhibition ([11]; Compound concentration 0.01 uM) was 3%, the inhibition ([11]; Compound concentration 0.1 uM) was 1% and the inhibition ([11]; Compound concentration 1.0 uM) was 12%. For the same molecule, the inhibition ([11]; Compound concentration 10.0 uM) was 56%, the inhibition [12] was 8% and the inhibition [13] was 10%. For the same molecule, the inhibition at 60 min, 10 µM [14] was 3% (not active), the inhibition ([15]; Compound concentration 0.1 uM) was 2% and the inhibition ([15]; Compound concentration 1.0 uM) was 4%. For the same molecule, the inhibition ([15]; Compound concentration 10.0 uM) was 35%, the inhibition ([15]; Compound concentration 100.0 uM) was 66% and the IC50 [16] was 32.9 µM. The inhibition ([17]; Compound concentration 0.01 uM) was 9%, the inhibition ([17]; Compound concentration 0.1 uM) was 4% and the inhibition ([17]; Compound concentration 1.0 uM) was 7%. For the same molecule, the inhibition ([17]; Compound concentration 10.0 uM) was 101%, the inhibition [18] was 31% and the inhibition [19] was 0%. The inhibition [20] was -9%, the inhibition [21] was 12% and the inhibition [22] was 15%.
